# Values of other authors as cited in patent US9682063B2, “HCD formulation for cancer treatment” (National Dong Hwa University, priority 2015, dated 2017).
# Experiments:
# [1] = background statement
# CML K562 cells = details: background statement
structure (smiles),measurement,setting,value
"CC1=CCCC2C1(C)CCC(C)C2(C)CCC1=CC(=O)OC1O (centres unmarked) [HCD, 16-Hydroxycleroda-3,13-dien-15,16-olide]",water solubility,[1],poor water solubility
same,apoptosis in CML K562 cells,CML K562 cells,induces apoptosis in CML K562 cells
